Source: US20200330444A1, “[…] FOR TREATING PAIN AND RELATED DISEASES AND CONDITIONS, AND COMPOSITIONS AND METHODS THEREOF” (NeuForm Pharmaceuticals, Inc., priority 2016, published 2020)

How the values were obtained:
CYP2D6 = CYP2D6 (Homo sapiens, UniProt P10635); assay: In vitro metabolic stability on incubation with CYP2D6; assay type: in vitro ADME
Experimental: (§1) The stability time course samples were prepared and extracted immediately by protein precipitation method using acetonitrile containing 575 ng/mL carbutamide, 100 ng/mL loxapine and 10 ng/mL longdaysin as the internal standard (IS). The samples were analyzed on a Waters Acquity UPLC system coupled with a mass dspectrometer. The peak area ratios of respective extracted ion chromatograms were used for relative comparison.
(§2) 300 μL of the above 2.0 μM combo solutions were added into 1.5 mL of Eppendof tubes. The samples were put in 37° C. incubator for 10 minutes. Then 300 of 37° C. pre-warmed 0.35 mg/mL of human liver microsome (or 37.5 pmol/mL CYP3A4, or 25 pmol/mL CYP2D6) and 2.6 mM NADPH in 100 mM potassium phosphate buffer pH 7.4 (contains 3.3 mM MgCl2) was added to initiate the enzyme activity. 50.0 μL of the reaction mixture was put into 150 μL of acetonitrile with 100 ng/mL loxapine, 10 ng/ml longdaysin (IS) to stop the reaction at 0′, 15′, 30′, 60′, 2 hours, 3 hours and 4 hours. The samples were vortexed and centrifuged at 13,000 g for approximately 5 min, then supernatants were taken and stored in −20° C. freezer. After the last samples were taken and they were placed in −20° C. at least 1 hour. All samples were put into a refrigerator at approximate 4° C. for 30 min. The samples were vortexed. […]

[1] = In vitro metabolic stability in human liver microsome suspensions; assay type: in vitro ADME
Experimental: as §1, §2

Chain of CYP2D6 (P10635 whole entry): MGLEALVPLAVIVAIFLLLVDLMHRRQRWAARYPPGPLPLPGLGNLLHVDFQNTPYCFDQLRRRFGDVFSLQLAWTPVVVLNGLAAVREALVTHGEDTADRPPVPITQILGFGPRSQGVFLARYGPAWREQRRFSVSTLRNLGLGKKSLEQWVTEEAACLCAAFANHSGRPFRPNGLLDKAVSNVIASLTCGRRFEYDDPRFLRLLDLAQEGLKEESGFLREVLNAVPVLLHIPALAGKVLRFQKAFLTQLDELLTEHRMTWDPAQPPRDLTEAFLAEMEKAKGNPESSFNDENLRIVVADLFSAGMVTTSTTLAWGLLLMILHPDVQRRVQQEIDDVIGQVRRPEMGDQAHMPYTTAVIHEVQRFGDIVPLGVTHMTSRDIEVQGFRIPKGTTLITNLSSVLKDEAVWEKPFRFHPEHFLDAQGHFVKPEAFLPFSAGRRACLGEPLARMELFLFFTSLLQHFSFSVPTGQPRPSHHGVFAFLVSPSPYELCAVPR

With `[2H]C([2H])(C[C@@]1(c2ccccn2)CCOC2(CC([2H])([2H])C([2H])([2H])C2)C1)NCc1sccc1OC` [D6-Oliceridine-a] the “Half-life increased by, vs oliceridine” value (CYP2D6) was 200%, the “Concentration after incubation higher than that of the non-deuterated compound” value ([1]; human liver microsome, 60 min) was 32% and the “Half-life increased by, vs oliceridine” value ([1]; incubation with human liver microsome) was 29%.
In the case of `[2H]C([2H])(C[C@@]1(c2ccccn2)CC([2H])([2H])OC2(CC([2H])([2H])C([2H])([2H])C2)C1)NCc1sccc1OC` [D8-oliceridine], the “Half-life increased by, vs oliceridine” value (CYP2D6) is reported as 200%.
